pIC50: −log10 of the molar value. Read-outs that look alike come from different tables or passages of the source.
Experiments:
[1] = target: T1, HDAC1 (Homo sapiens, UniProt Q13547); test: Fluorimetric HDAC inhibition assay, HDAC1; format: biochemical; settings: reduced with DTT
T1 construct: purchased BPS Bioscience 50051
Description: The inhibition of HDAC1, 2, 3, and 6 by JRM-28 was fluorometrically measured using the HDAC Fluorogenic Assay Kit (Catalog# 50034) by BPS bioscience. Purified recombinant human HDAC1 (Cat# 50051), HDAC3 (Cat# 50003), and HDAC6 (Cat# 50056) were also obtained from BPS Bioscience. The enzyme inhibition assay was performed according to the manufacturer’s protocol. […] Purified recombinant HDAC2 (supplied with the fluorogenic kit) was diluted to 6 ng/µL (5 µL/well with the supplied HDAC assay buffer). HDAC 1, 3, and 6 were also diluted to the optimized concentration (5 µL/well) with the HDAC assay buffer. The activity of JRM-28 was measured along with DTT control and DMSO as blank. After adding 5 µL of the diluted HDAC enzymes in designated wells, the 96-well plate (supplied with the kit) was incubated at 37 °C. Then, the reaction was initiated by adding 5 µL of diluted HDAC substrate to each well, followed by another incubation at 37 °C for 30 min. Next, 50 µL of the developer reagent was added to each well and incubated at room temperature for another 15 min. Finally, fluorescence was measured by a microplate absorbance spectrophotometer (PerkinElmer Enspire 2300 Multilabel Multimode Microplate Reader) with an excitation at λ = 485 nm and detection at λ = 528 nm.

[2] = test system: SHSY5Y cells; test: TUNEL assay; format: cell-based, human; settings: 24 h, in the presence of DTT
Description: To assess the effect of JRM-28 on apoptosis in SHS5Y cells, a total of 3 × 10^5 cells suspended in […] of complete neurobasal medium was distributed in each well of a poly-D-lysine-coated eight-well Chamber Slide. After 48 h, cells were treated with 2, 5, 10, 20, 30, and 50 μM of JRM-28 under serum-free conditions and then incubated for an additional 24 h. The TUNEL activity was measured by colorimetric microscopy as directed in the protocol described in DeadEnd™ Colorimetric TUNEL System (Promega, Madison, WI, USA). Hematoxylin staining was adopted to counterstain the slide.

[3] = target: HDAC2 (Homo sapiens, UniProt Q92769); test: HDAC2 inhibition assay, luminometric method (HDAC-Glo I/II); format: biochemical; parameters: purchased BPS Bioscience 50002; settings: for pIC50: HDAC2 0.5 nM, read-out: IC50 HDAC2 inhibition (luminescence)
Sequence of HDAC2 (Q92769 whole entry): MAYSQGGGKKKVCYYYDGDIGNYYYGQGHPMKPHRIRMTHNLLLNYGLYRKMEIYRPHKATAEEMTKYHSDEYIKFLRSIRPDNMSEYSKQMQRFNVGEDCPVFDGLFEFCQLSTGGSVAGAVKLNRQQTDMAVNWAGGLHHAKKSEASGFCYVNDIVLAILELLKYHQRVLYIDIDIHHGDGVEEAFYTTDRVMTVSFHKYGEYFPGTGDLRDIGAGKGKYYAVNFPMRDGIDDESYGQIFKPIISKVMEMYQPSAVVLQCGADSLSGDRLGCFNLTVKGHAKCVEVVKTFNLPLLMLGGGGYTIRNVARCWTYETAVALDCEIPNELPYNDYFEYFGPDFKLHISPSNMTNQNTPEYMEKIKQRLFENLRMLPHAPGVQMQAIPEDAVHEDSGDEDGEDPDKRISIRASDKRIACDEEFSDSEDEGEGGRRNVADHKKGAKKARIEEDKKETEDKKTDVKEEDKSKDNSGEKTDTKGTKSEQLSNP
Description: HDAC2 inhibition assay was performed by either the luminometric or fluorimetric method applying the following procedures. The table (Table 1) represents the details of different HDAC proteins and antibodies used in all biochemical assays.
HDAC2 inhibition assay was performed by HDAC-Glo™ I/II Assays and Screening System (Catalog# G6420, Promega Corporation, Madison, WI, USA) by the luminometric method according to the manufacturer’s protocol. […] The HDAC-2 inhibition assay was performed as previously described to determine IC values. In brief, the purified HDAC2 was diluted in HDAC assay buffer (provided with the HDAC-Glo™ I/II Assays and Screening System) to the same concentration based on their calculated molar mass. […] Next, 10 µL of JRM-28 after serial dilution was added to 10 µL of diluted HDAC2 in such a way that the final HDAC2 concentration was 0.5 nM in each well of a 384-well microplate (Greiner, Kremsmünster, Austria). After 30 min of incubation, 20 µL of the HDAC-Glo substrate/developing reagent was added to each well according to the manufacturer’s instructions. The 384-well plate was then agitated on an orbital shaker for the mixing of components in each well for another 30 min at room temperature. Finally, luminescence was measured using a POLARstar Omega plate reader (BMG Labtech, Ortenberg, Germany).

[4] = test system: mouse primary hippocampal neurons; test: NMDA/AMPA-sensitive calcium influx assay in mouse primary hippocampal neurons; format: cell-based
Description: Mouse primary hippocampal neurons and AD neurons were loaded with Fluo4-fluorescence conjugated calcium dye (Invitrogen Molecular Probes, Cat #F10471) and incubated at 37 °C for 60 min, as described before. Briefly, fluorescence excitation and emission spectra were recorded in a Perkin–Elmer Victor X2 Fluorimetric Spectrometer (Versiti Blood Center, Wauwatosa, WI, USA) in the presence of 50 μM NMDA and AMPA solutions. The recording was performed with 100 repeats at 0.1 ms intervals. The oscillogram was generated with the help of Parkin Elmer 2030 software that was connected to the Victor X2 calcium recorder unit. The real-time calcium noise graph was generated as a kinetic chart plotted on a linear scale.

T1 sequence (Q13547 whole entry): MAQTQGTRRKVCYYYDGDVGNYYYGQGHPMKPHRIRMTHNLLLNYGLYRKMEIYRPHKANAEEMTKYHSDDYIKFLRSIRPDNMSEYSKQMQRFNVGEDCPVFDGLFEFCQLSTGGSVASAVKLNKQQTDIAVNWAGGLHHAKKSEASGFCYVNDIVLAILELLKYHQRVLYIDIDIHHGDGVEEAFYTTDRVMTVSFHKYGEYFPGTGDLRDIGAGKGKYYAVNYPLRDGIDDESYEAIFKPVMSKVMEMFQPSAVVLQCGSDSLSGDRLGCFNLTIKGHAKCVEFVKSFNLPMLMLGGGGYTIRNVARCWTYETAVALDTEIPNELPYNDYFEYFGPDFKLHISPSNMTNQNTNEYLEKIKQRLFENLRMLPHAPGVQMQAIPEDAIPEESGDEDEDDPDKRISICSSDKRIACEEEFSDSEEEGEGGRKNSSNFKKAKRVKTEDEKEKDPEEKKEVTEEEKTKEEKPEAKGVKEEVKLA

CN(C(=O)CC(O)/C=C/CCSS(=O)(=O)CC/C=C/C(O)CC(=O)N(C)c1ccccc1)c1ccccc1 (stereo not drawn) [JRM-28, S-((E)-5-hydroxy-7-(methyl(phenyl)amino)-7-oxohept-3-en-1-yl) (E)-5-hydroxy-7-(methyl(phenyl)amino)-7-oxohept-3-ene-1-sulfonothioate]
pIC50 [1]: 6.45 | Hill coefficient HDAC1 (fluorimetric) ([1]; listed as JRM-28 (JRM-28a+28b)): −4.582 | TUNEL cytotoxicity ([2]; 20 µM): caused nuclear condensation | TUNEL cytotoxicity ([2]; 30 µM): induced significant cell death | TUNEL cytotoxicity ([2]; 50 µM): induced significant cell death | TUNEL cytotoxicity ([2]; lower doses up to 10 µM): did not induce any cell death | pIC50 ([3]; in the presence of DTT (reduced)): 6.55 | increase of HDAC2 inhibitory effect by addition of DTT ([3]; with DTT versus without DTT): ~200 fold | pIC50 ([3]; without DTT (non-reduced dimer)): 4.26 | AMPA-sensitive calcium influx ([4]; 5 µM, 24 h): strongly upregulated | NMDA-sensitive calcium influx ([4]; 5 µM, 24 h): strongly upregulated | optimum dose for the calcium influx ([4]; 2, 5, and 10 µM tested): 5 µM | NMDA- and AMPA-driven calcium influx after creb siRNA ([4]; creb knocked down by creb siRNA): significantly abrogate
